Biological target: GABA-A receptor; anion channel
Assay: Inhibition of [35S][…] (TBPS) binding to Gamma-aminobutyric acid receptor
Format: protein-complex assay

Row | IC50 [µM] | SMILES
1 | 2 | CCCOC(=O)c1c(C)nc2c(c1N)c1ccccc1n2C
2 | 6.3 | Cc1nc2sc3c(c2c2ncn(CCC4CC4)c12)CCC1(C3)OCCO1
3 | 0.78 | C#CCOC(=O)c1c(C)nc2sc3c(c2c1N)CCC1(C3)OCCO1
4 | 1.4 | Cc1nc2sc3c(c2c(N)c1C(=O)OCc1ccccc1)CCC1(C3)OCCO1
5 | 0.24 | Cc1nc2sc3c(c2c(N)c1C(=O)OCCC1CC1)CCC1(C3)OCCO1
6 | 8.9 | Cc1nc2sc3c(c2c2ncn(CC4CC4)c12)CCC1(C3)OCCO1
7 | > 100 | Cc1[nH]c2sc3c(c2c2ncnc1-2)CCC1(C3)OCCO1
8 | 2 | CCOC(=O)c1c(C)nc2c(c1N)c1ccccc1n2C
9 | 2 | COC(=O)c1c(C)nc2c(c1N)c1ccccc1n2C
10 | 2.7 | Cc1nc2sc3c(c2c2ncn(CCc4ccc(Cl)cc4)c12)CCC1(C3)OCCO1
11 | > 100 | Cc1nc2sc3c(c2c2nn(Cc4ccccc4)c(O)c12)CCC1(C3)OCCO1
12 | 0.87 | Cc1nc2sc3c(c2c(N)c1C(=O)OCC1CC1)CCC1(C3)OCCO1
13 | 0.31 | Cc1nc2sc3c(c2c(N)c1C(=O)OCc1ccc(Cl)cc1)CCC1(C3)OCCO1
14 | 16.4 | CCOC(=O)c1c(C)nc2sc3c(c2c1N)CCC1(C3)OCCO1
15 | 0.32 | C#CCCOC(=O)c1c(C)nc2sc3c(c2c1N)CCC1(C3)OCCO1
